Experiments:
[1] = Glucose transduction in PBS, relative fluorescent intensity (FIG. 18 format)
Procedure: FIG. 18 is a graph showing Nile Blue boronate's transduction of glucose in PBS.
The figures provided herein further illustrate various embodiments of the invention and their properties in order to further facilitate artisans' making and using the invention. For example, using the graphic format provided in FIG. 18, experiments confirming properties of Nile Blue were performed with the following results: […]

[2] = Glucose transduction of Nile Blue boronate: fluorescence in DMSO/PBS, ex 621 nm, em 671 nm; settings: for fluorescent intensity increase at 671 nm: ex 621 nm, relative to blank, listed as 1; for fluorescent intensity increase at 671 nm / increase in fluorescent intensity at 671 nm: DMSO/PBS; for increase in fluorescent intensity at 671 nm: separate batch
Procedure: A typical embodiment of the invention uses Nile Blue as an illustrative oxazine-based fluorophore.
Results: After work-up, the reaction was concentrated to dryness. A sample of the blue residue (˜1 mg), dissolved in DMSO (1 ml), was aliquoted (100 □ L) and dissolved in PBS (20 mL). […] A control fluorescence experiment was performed containing Nile Blue A using the same conditions as mentioned above.
(§1) To a round bottom flask, equipped with a reflux condenser under N2, containing Nile Blue perchlorate salt (42 mg, 0.1 mmol), boronate (28 mg, 0.1 mmoles) and K2CO3 (˜1 g) was added CH3CN (25 mL). The reaction was heated at reflux for 24 hours after which the solvent evaporated and the reaction went to dryness. The sample of the reaction mixture (1 mg, 2.21 mole) was dissolved in DMSO (1 mL). An aliquot (100 μL) was dissolved in PBS (20 mL). A sample of this solution (3 mL) was placed into the fluorolog and fluorescent measurements were made (ex=621 nm, slits at 10 and 20) at various glucose concentrations (0 mg/dL, 150 mg/dL, 300 mg/dL and 450 mg/dL) with a sampling interval of 45 min.
as §1, with “(22” for “(28”, “The reaction was heated at reflux for 24 hours after which the solvent evaporated and the reaction went to dryness.” left out, “[…])” for “mole)”
as §1, with “[…])” for “mole)”

Water solubility = format: physicochemical
Text: Exemplary long wavelength glucose-sensing molecule containing an oxazine (Nile Blue) coupled with a phenyl boronate suitable for detection of glucose, following polymer incorporation, in vivo is shown in FIGS. 2 and 3. FIG. 2 provides a comparison of fluorescent excitations of representative fluorophores including the oxazine Nile Blue. The excitation and emission profile of anthracene based compounds are well below that of Nile Blue's fluorescent profile (see, e.g., FIG. 3). […] It is feasible to substitute other oxazines of similar structure for Nile Blue.

[3] = Fluorescence excitation and emission wavelengths; format: physicochemical; settings: aqueous PBS; for maximum emission wavelength: irradiated at 621 nm
Text: An exemplary oxazine-based biosensor molecule of the present invention utilizes Nile blue as the fluorophore as shown in FIG. 2. The Nile blue-based biosensor molecule has an excitation wavelength of about 625 nm and a maximum emission wavelength of about 675 nm (see, e.g. FIGS. 8). Similar oxazine-based fluorophores suitable for use in embodiments of the present invention may include one or more functional groups selected from the following: aliphatic, aromatic, haloalkane, alcohol, ether, amine, cyano, nitro group, aldehyde, ketone, ester, carboxylic acid, sulfonic acid and phosphoric acid functional groups.
As illustrated above, the oxazine-based molecules in accordance with embodiments of the invention solve the problem of obtaining optimal optical transmission of fluorescence via implanted fluorescent reporter systems of in-vivo polyhydroxylate analyte concentrations. […] Particular embodiments of the biosensor molecules of the invention have at least one maximum wavelength in their emission spectra that is greater than about 600 nm and have at least one wavelength in their emission spectra that is greater than about 650 nm. An exemplary oxazine-based biosensor molecule in accordance with embodiments of the invention utilizes Nile Blue as a fluorophore. This Nile Blue biosensor molecule generally has an excitation wavelength of about 625 nm and an emission wavelength of about 675 nm in an aqueous Phosphate Buffered Saline (PBS) solution. Particular embodiments of the invention, however, may emit in the near infrared (IR) region of the spectrum.
Results: After work-up, the reaction was concentrated to dryness. A sample of the blue residue (˜1 mg), dissolved in DMSO (1 ml), was aliquoted (100 □ L) and dissolved in PBS (20 mL). A sample PBS solution (3 mL) contained in a cuvette and irradiated at 621 nm, gave rise to the appearance of a maximum emission peak at 671 nm. Successive additions of glucose (150 mg/dL), added to the cuvette, led to an increase in […] intensity, at 671 nm, after each addition. The first addition of glucose gave rise to a 7.5% increase in fluorescence at 671 nm. After the second addition of glucose, the intensity rose 14.3% relative to the blank. Addition of the third aliquot of glucose gave an 18.8% rise in fluorescent intensity relative to the blank. […] A control fluorescence experiment was performed containing Nile Blue A using the same conditions as mentioned above.

Work on Nile Blue A yielded a relative fluorescent intensity ([1]; glucose 0 mg/dl) of 1.0, a relative fluorescent intensity ([1]; glucose 150 mg/dl) of 1.085 and a relative fluorescent intensity ([1]; glucose 300 mg/dl) of 1.239. It also gave a relative fluorescent intensity ([1]; glucose 450 mg/dl) of 1.398 and a relative fluorescent intensity ([1]; glucose 1000 mg/dl) of 1.513.
For `CC[N+](CC)=c1ccc2nc3c(cc(N)c4ccccc43)oc-2c1` [Nile Blue, Nile Blue A, reference compound], the “glucose transduction (control experiment)” value ([2]; DMSO/PBS solutions, same conditions as the boronate) was “incapable of transducing glucose” and the solubility in water (Water solubility) was “highly soluble in water”.
In the case of Nile Blue Boronate, the “fluorescent intensity increase at 671 nm” value ([2]; glucose 150 mg/dL) is reported as 7.5%, the “fluorescent intensity increase at 671 nm” value ([2]; glucose 300 mg/dL) is reported as 14.3% and the “fluorescent intensity increase at 671 nm” value ([2]; glucose 450 mg/dL) is reported as 18.8%. For the same compound, the glucose transduction ([2]; in water) was “transduces glucose exceptionally well”, the “increase in fluorescent intensity at 671 nm” value ([2]; glucose 150 mg/dL (first addition)) was 23.4% and the “increase in fluorescent intensity at 671 nm” value ([2]; glucose 300 mg/dL (second addition)) was 37.8%. The “increase in fluorescent intensity at 671 nm” value ([2]; glucose 450 mg/dL (third addition)) was 47.4%, the excitation wavelength [3] was “about 625 nm” and the maximum emission wavelength ([3]; listed as 1) was 671 nm. The maximum emission wavelength ([3]; listed as Nile Blue biosensor molecule) was “about 675 nm” and the maximum emission wavelength ([3]; listed as Nile blue-based biosensor molecule) was “about 675 nm”.

Reference: patent publication US6766183B2, “Long wave fluorophore sensor compounds and other fluorescent sensor compounds in polymers” (Medtronic MiniMed, Inc., priority 1995, dated 2004)
